Reference: PubChem BioAssay AID248 (DTP/NCI, 2004)
Where “and” joins values, the source holds several entries; their conditions need not be identical. Equal values may be shown once. Toxic doses and inconclusive results are not listed.

Tested on: L1210 leukemia ip in BDF1 mice, survival T/C
Experiment: NCI In Vivo Anticancer Drug Screen. Data for tumor model L1210 Leukemia (intraperitoneal) in B6D2F1 (BDF1) mice
Details: endpoint: mean survival time, higher = longer survival
Procedure, shortened: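 Transplantable tumor model; survival measured in treated vs vehicle control mice. Value = treated/control.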

[1] = dose: 6.25 mg/kg/injection, schedule: Q01DX009 (ip), vehicle: saline
[2] = dose: 12.5 mg/kg/injection, schedule: Q01DX009 (ip), vehicle: saline
[3] = dose: 25.0 mg/kg/injection, schedule: Q01DX009 (ip), vehicle: saline
[4] = dose: 25.0 mg/kg/injection, schedule: Q04DX003 (ip), vehicle: saline
[5] = dose: 50.0 mg/kg/injection, schedule: Q01DX009 (ip), vehicle: saline
[6] = dose: 50.0 mg/kg/injection, schedule: Q04DX003 (ip), vehicle: saline
[7] = dose: 100.0 mg/kg/injection, schedule: Q01DX009 (ip), vehicle: saline
[8] = dose: 50.0 mg/kg/injection, schedule: Q01DX009 (ip), vehicle: saline with Tween-80
[9] = dose: 100.0 mg/kg/injection, schedule: Q01DX009 (ip), vehicle: saline with Tween-80
[10] = dose: 12.5 mg/kg/injection, schedule: Q01DX009 (ip), vehicle: Klucel (hydroxypropylcellulose) (HPC)
[11] = dose: 25.0 mg/kg/injection, schedule: Q01DX009 (ip), vehicle: Klucel (hydroxypropylcellulose) (HPC)
[12] = dose: 50.0 mg/kg/injection, schedule: Q01DX009 (ip), vehicle: Klucel (hydroxypropylcellulose) (HPC)
[13] = dose: 200.0 mg/kg/injection, schedule: Q01DX009 (ip), vehicle: saline with Tween-80
[14] = dose: 100.0 mg/kg/injection, schedule: Q01DX001 (ip), vehicle: saline
[15] = dose: 200.0 mg/kg/injection, schedule: Q01DX001 (ip), vehicle: saline
[16] = dose: 400.0 mg/kg/injection, schedule: Q01DX001 (ip), vehicle: saline

**Q.** Which T/C [1] does the source give for `CCN1CC(CCN2CCOCC2)C(c2ccccc2)(c2ccccc2)C1=O` (stereo not drawn) here?
**A.** 111 % of control

**Q.** What about the T/C [2] of the same compound?
**A.** 108 % of control

**Q.** What about the T/C [3] of the same compound?
**A.** 101 % of control

**Q.** What about the T/C [4] of the same compound?
**A.** 87 % of control

**Q.** And the T/C [5]?
**A.** 111 % of control

**Q.** And the T/C [6]?
**A.** 95 % of control

**Q.** And the T/C [7]?
**A.** 101 % of control

**Q.** What about the T/C (dose: 100.0 mg/kg/injection, schedule: Q04DX003 (ip), vehicle: saline) of the same compound?
**A.** 92 % of control

**Q.** Which results are given for `NC(N)=NNc1ccccc1`?
**A.** T/C (dose: 25.0 mg/kg/injection, schedule: Q01DX009 (ip), vehicle: saline with Tween-80): 115 % of control; T/C [8]: 107 % of control; T/C [5]: 95 % of control; T/C [9]: 86 % of control; T/C [7]: 97 % of control

**Q.** Which T/C [1] does the source give for `Cc1ccc2c3nc4ccccc4c-3csc2c1` here?
**A.** 103 % of control

**Q.** What about the T/C [2] of the same compound?
**A.** 108 % of control and 103 % of control

**Q.** What about the T/C (dose: 12.5 mg/kg/injection, schedule: Q04DX003 (ip), vehicle: saline) of the same compound?
**A.** 93 % of control and 92 % of control

**Q.** What about the T/C [3] of the same compound?
**A.** 98 % of control and 93 % of control

**Q.** And the T/C [4]?
**A.** 93 % of control and 90 % of control

**Q.** What about the T/C (dose: 35.0 mg/kg/injection, schedule: Q01DX009 (ip), vehicle: saline) of the same compound?
**A.** 101 % of control and 86 % of control

**Q.** And the T/C [6]?
**A.** 87 % of control

**Q.** And the T/C (dose: 55.0 mg/kg/injection, schedule: Q01DX009 (ip), vehicle: saline)?
**A.** 93 % of control and 92 % of control

**Q.** Which results are given for `CC(CCC(C)OS(C)(=O)=O)OS(C)(=O)=O` (stereo not drawn)?
**A.** T/C (dose: 2.0 mg/kg/injection, schedule: Q01DX010 (ip), vehicle: saline): 86 % of control and 87 % of control; T/C (dose: 3.1 mg/kg/injection, schedule: Q01DX009 (ip), vehicle: Klucel (hydroxypropylcellulose) (HPC)): 96 % of control; T/C (dose: 4.0 mg/kg/injection, schedule: Q01DX009 (ip), vehicle: saline): 97 % of control; T/C (dose: 4.0 mg/kg/injection, schedule: Q01DX010 (ip), vehicle: saline): 100 % of control; T/C (dose: 6.25 mg/kg/injection, schedule: Q01DX009 (ip), vehicle: Klucel (hydroxypropylcellulose) (HPC)): 102 % of control and 103 % of control and 101 % of control; T/C (dose: 6.25 mg/kg/injection, schedule: Q04DX002 (ip), vehicle: Klucel (hydroxypropylcellulose) (HPC)): 96 % of control; T/C (dose: 8.0 mg/kg/injection, schedule: Q01DX009 (ip), vehicle: saline): 101 % of control; T/C (dose: 8.0 mg/kg/injection, schedule: Q01DX010 (ip), vehicle: saline): 89 % of control and 90 % of control; T/C [10]: 105 % of control [middle of 4 runs]; T/C (dose: 12.5 mg/kg/injection, schedule: Q04DX002 (ip), vehicle: Klucel (hydroxypropylcellulose) (HPC)): 96 % of control and 100 % of control; T/C (dose: 16.0 mg/kg/injection, schedule: Q01DX009 (ip), vehicle: saline): 108 % of control; T/C (dose: 16.0 mg/kg/injection, schedule: Q01DX010 (ip), vehicle: saline): 106 % of control and 114 % of control; T/C [11]: 102 % of control and 88 % of control and 108 % of control; T/C (dose: 25.0 mg/kg/injection, schedule: Q04DX002 (ip), vehicle: Klucel (hydroxypropylcellulose) (HPC)): 96 % of control and 93 % of control and 94 % of control; T/C (dose: 32.0 mg/kg/injection, schedule: Q01DX009 (ip), vehicle: saline): 103 % of control; T/C [12]: 87 % of control; T/C [8]: 91 % of control and 93 % of control; T/C (dose: 50.0 mg/kg/injection, schedule: Q04DX002 (ip), vehicle: Klucel (hydroxypropylcellulose) (HPC)): 107 % of control; T/C [9]: 98 % of control and 97 % of control; T/C [13]: 91 % of control and 87 % of control

**Q.** How did the T/C [14] turn out when `COC(=O)CCC(N=C=O)C(=O)OC` (stereo not drawn) was run?
**A.** 101 % of control

**Q.** What about the T/C [15] of the same compound?
**A.** 98 % of control

**Q.** And the T/C [16]?
**A.** 106 % of control

**Q.** Which results are given for `CN(C)C1c2cc(Br)ccc2-c2ccc([N+](=O)[O-])cc21` (stereo not drawn)?
**A.** T/C (dose: 100.0 mg/kg/injection, schedule: Q01DX001 (ip), vehicle: carboxymethylcellulose (CMC)): 94 % of control; T/C (dose: 200.0 mg/kg/injection, schedule: Q01DX001 (ip), vehicle: carboxymethylcellulose (CMC)): 103 % of control; T/C (dose: 400.0 mg/kg/injection, schedule: Q01DX001 (ip), vehicle: carboxymethylcellulose (CMC)): 100 % of control

**Q.** `Oc1ccccc1C=Nc1ccccc1N=Cc1ccccc1O` was tested. Which T/C (dose: 100.0 mg/kg/injection, schedule: Q01DX001 (ip), vehicle: Klucel (hydroxypropylcellulose) (HPC)) did it give?
**A.** 102 % of control

**Q.** What about the T/C (dose: 200.0 mg/kg/injection, schedule: Q01DX001 (ip), vehicle: Klucel (hydroxypropylcellulose) (HPC)) of the same compound?
**A.** 103 % of control

**Q.** And the T/C (dose: 400.0 mg/kg/injection, schedule: Q01DX001 (ip), vehicle: Klucel (hydroxypropylcellulose) (HPC))?
**A.** 96 % of control

**Q.** With `CCCCNc1ncnc2c1ncn2C1OC(CO)C(O)C1O` (stereo not drawn) as the compound, how does the T/C (dose: 50.0 mg/kg/injection, schedule: Q01DX005 (ip), vehicle: saline) read?
**A.** 105 % of control

**Q.** Which T/C (dose: 0.06 mg/kg/injection, schedule: Q01DX015 (ip), vehicle: carboxymethylcellulose (CMC)) does the source give for `COC(=O)CCc1c[nH]c2ccc(N(CCCl)CCCl)cc12` here?
**A.** 104 % of control

**Q.** What about the T/C (dose: 0.13 mg/kg/injection, schedule: Q01DX015 (ip), vehicle: carboxymethylcellulose (CMC)) of the same compound?
**A.** 105 % of control

**Q.** What about the T/C (dose: 0.25 mg/kg/injection, schedule: Q01DX015 (ip), vehicle: carboxymethylcellulose (CMC)) of the same compound?
**A.** 110 % of control

**Q.** And the T/C (dose: 0.5 mg/kg/injection, schedule: Q01DX015 (ip), vehicle: carboxymethylcellulose (CMC))?
**A.** 120 % of control

**Q.** And the T/C (dose: 1.0 mg/kg/injection, schedule: Q01DX015 (ip), vehicle: carboxymethylcellulose (CMC))?
**A.** 100 % of control

**Q.** What about the T/C (dose: 1.9 mg/kg/injection, schedule: Q01DX009 (ip), vehicle: other) of the same compound?
**A.** 118 % of control

**Q.** What about the T/C (dose: 3.0 mg/kg/injection, schedule: Q01DX015 (ip), vehicle: carboxymethylcellulose (CMC)) of the same compound?
**A.** 119 % of control

**Q.** What about the T/C (dose: 3.8 mg/kg/injection, schedule: Q04DX003 (ip), vehicle: saline) of the same compound?
**A.** 108 % of control

**Q.** And the T/C (dose: 7.5 mg/kg/injection, schedule: Q04DX003 (ip), vehicle: saline)?
**A.** 115 % of control

**Q.** And the T/C (dose: 15.0 mg/kg/injection, schedule: Q01DX009 (ip), vehicle: other)?
**A.** 123 % of control

**Q.** What about the T/C (dose: 30.0 mg/kg/injection, schedule: Q04DX003 (ip), vehicle: saline) of the same compound?
**A.** 177 % of control

**Q.** With `CC1CCC2=CC(=O)CCC2(C)C1C` (stereo not drawn) as the compound, how does the T/C [9] read?
**A.** 101 % of control

**Q.** And the T/C [13]?
**A.** 96 % of control

**Q.** What about the T/C (dose: 400.0 mg/kg/injection, schedule: Q01DX009 (ip), vehicle: saline with Tween-80) of the same compound?
**A.** 91 % of control

**Q.** With `CC([NH-])=O.CC([NH-])=O.[Pt+2]` as the compound, how does the T/C (dose: 100.0 mg/kg/injection, schedule: Q01DX009 (ip), vehicle: water) read?
**A.** 105 % of control

**Q.** And the T/C (dose: 100.0 mg/kg/injection, schedule: Q04DX003 (ip), vehicle: water)?
**A.** 101 % of control

**Q.** What about the T/C (dose: 200.0 mg/kg/injection, schedule: Q01DX009 (ip), vehicle: water) of the same compound?
**A.** 95 % of control

**Q.** And the T/C (dose: 200.0 mg/kg/injection, schedule: Q04DX003 (ip), vehicle: water)?
**A.** 103 % of control

**Q.** What does the source list for `CC(N(N=O)c1ccccc1)S(=O)(=O)O` (stereo not drawn)?
**A.** T/C [14]: 104 % of control; T/C [7]: 92 % of control; T/C [15]: 96 % of control; T/C (dose: 200.0 mg/kg/injection, schedule: Q01DX009 (ip), vehicle: saline): 99 % of control; T/C [16]: 98 % of control

**Q.** What does the source list for `COc1ccc(Cc2nnc(Cc3ccc(OC)c(OC)c3)nn2)cc1OC`?
**A.** T/C [8]: 89 % of control; T/C [9]: 93 % of control; T/C [13]: 87 % of control

**Q.** Which results are given for `CN(NC(=O)OCc1ccccc1)C(=O)OCc1ccccc1`?
**A.** T/C [10]: 98 % of control; T/C (dose: 12.5 mg/kg/injection, schedule: Q04DX003 (ip), vehicle: Klucel (hydroxypropylcellulose) (HPC)): 93 % of control; T/C [11]: 93 % of control; T/C (dose: 25.0 mg/kg/injection, schedule: Q04DX003 (ip), vehicle: Klucel (hydroxypropylcellulose) (HPC)): 103 % of control; T/C [12]: 108 % of control; T/C (dose: 50.0 mg/kg/injection, schedule: Q04DX003 (ip), vehicle: Klucel (hydroxypropylcellulose) (HPC)): 112 % of control; T/C (dose: 100.0 mg/kg/injection, schedule: Q01DX009 (ip), vehicle: Klucel (hydroxypropylcellulose) (HPC)): 90 % of control; T/C (dose: 100.0 mg/kg/injection, schedule: Q04DX003 (ip), vehicle: Klucel (hydroxypropylcellulose) (HPC)): 89 % of control; T/C (dose: 200.0 mg/kg/injection, schedule: Q01DX009 (ip), vehicle: Klucel (hydroxypropylcellulose) (HPC)): 90 % of control; T/C (dose: 200.0 mg/kg/injection, schedule: Q04DX003 (ip), vehicle: Klucel (hydroxypropylcellulose) (HPC)): 106 % of control; T/C (dose: 400.0 mg/kg/injection, schedule: Q04DX003 (ip), vehicle: Klucel (hydroxypropylcellulose) (HPC)): 110 % of control
